# From patent US7214676B2, “Spirotricyclic derivatives and their use as phosphodiesterase-7 inhibitors” (Warner-Lambert Company LLC, priority 2001, dated 2007)
# Biological target: T1, PDE7A1 (Homo sapiens, UniProt Q13946)
# T1 construct: made in house; host or cells: Sf21 insect cells, baculovirus expression system
# Test: In vitro inhibition of phosphodiesterase 7
# Format: biochemical
# Conditions: substrate cAMP 50 nM, reaction stopped after 10 minutes; read-out: IC50 PDE7
# Method: The capacity of the compounds of the invention to inhibit cyclic nucleotide phosphodiesterases was evaluated by measuring their IC50 (concentration necessary to inhibit the enzymatic activity by 50%).
# PDE3A3, PDE4D3, PDE7A1 were cloned and expressed in insect cells Sf21 using the baculovirus expression system and we uses directly the cell culture supernatant as enzyme source. The source of PDE1 and of PDE5 were human cell lines (respectively TPH1 human monocytes and MCF7 human breast adenocarcinoma).
# They were obtained partially purified on an anion exchange column (Mono Q) according to a method adapted from Lavan B. E., Lakey T., Houslay M. D. Biochemical pharmacology, 1989, 38 (22), 4123–4136.
# Measurement of the enzymatic activity for the various types of PDE was then made according to a method adapted from W. J. Thompson et al. 1979, Advances in Cyclic Nucleotide Research, Vol. 10: 69–92, ed. G. Brooker et al. Raven Press, NY.
# The substrate used was cGMP for PDE1 and PDE5 and cAMP for PDE 3, PDE 4 and PDE 7. The substrate concentration was 0.2 μM for PDE 1, PDE 3 and PDE 5, 0,25 μM for PDE 4 and 50 nM for PDE 7.
# The enzymatic reaction was stopped after 1 hour for PDE 1, PDE 3 and PDE 5 and 10 minutes for PDE 4 and PDE 7.
# T1 sequence (Q13946 whole entry, species assumed): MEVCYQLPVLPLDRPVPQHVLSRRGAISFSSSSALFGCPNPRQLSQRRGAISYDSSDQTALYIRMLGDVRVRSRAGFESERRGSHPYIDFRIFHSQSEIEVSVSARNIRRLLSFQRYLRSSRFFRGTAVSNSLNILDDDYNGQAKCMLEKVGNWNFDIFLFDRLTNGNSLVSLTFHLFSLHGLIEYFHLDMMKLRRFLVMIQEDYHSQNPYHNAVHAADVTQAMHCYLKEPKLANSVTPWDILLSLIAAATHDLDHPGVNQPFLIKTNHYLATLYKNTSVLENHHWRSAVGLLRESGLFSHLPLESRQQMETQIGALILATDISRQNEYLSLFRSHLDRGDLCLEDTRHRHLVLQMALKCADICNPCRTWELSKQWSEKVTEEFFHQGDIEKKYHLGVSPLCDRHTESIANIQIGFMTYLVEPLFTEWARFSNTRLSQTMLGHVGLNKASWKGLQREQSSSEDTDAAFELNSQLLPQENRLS
row,Structure (SMILES),IC50 [nM]
1,"O=C1Nc2c(Cl)cc(-c3ccc4[nH]ccc4c3)cc2C2(CCCCC2)N1 [Example 34, 8′-Chloro-6′-(1H-indol-5-yl)spiro[cyclohexane-1-4′-(3′,4′-dihydro)quinazolin]-2′(1H)-one]",12
2,"CN1CCN(C(=O)c2ccc(-c3cc(Cl)c4c(c3)C3(CCCCC3)NC(=O)N4)cc2)CC1 [Example 38, 8′-Chloro-6′-[4-(4-methyl-piperazine-1-carbonyl)phenyl]spiro[cyclohexane-1-4′-(3′,4′-dihydro)quinazolin]-2′(1′H)-one]",18
3,"CN(C)CCCNC(=O)c1cccc(-c2cc(Cl)c3c(c2)C2(CCCCC2)NC(=O)N3)c1 [Example 41, 8′-Chloro-6′-[3-(3-N-dimethylamino-propylcarboxamide)phenyl]spiro[-cyclohexane-1-4′-(3′,4′-dihydro)quinazolin]-2′(1′H)-one]",20
4,"O=C1Nc2c(Cl)cc(-c3ccc(C(=O)N4CCN(c5ncccn5)CC4)cc3)cc2C2(CCCCC2)N1 [Example 51, 8′-Chloro-6′-[4-(4-pyrimidin-2-yl-piperazine-1-carbonyl)phenyl]spiro[-cyclohexane-1-4′-(3′,4′-dihydro)quinazolin]-2′(1′H)-one]",8
5,"O=C1Nc2c(Cl)cc(-c3ccc(C(=O)N4CCN(CCN5CCOCC5)CC4)cc3)cc2C2(CCCCC2)N1 [Example 52, 8′-Chloro-6′-[4-(4-(2-morpholin-4-yl-ethyl)-piperazine-1-carbonyl)-phenyl]spiro[-cyclohexane-1-4′-(3′,4′-dihydro)quinazolin]-2′(1′H)-one]",15
6,O=C1Nc2c(Cl)cc(-c3ccc(C(=O)N4CCN(CCOCCO)CC4)cc3)cc2C2(CCCCC2)N1 [Example 54],13

# More lines, in order of falling IC50, values ahead:
row,IC50 [nM],Structure (SMILES)
1,16,"O=C1Nc2c(Cl)cc(-c3ccccc3)cc2C2(CCCCC2)N1 [Example 26, 8′-Chloro-6′-phenylspiro[cyclohexane-1-4′-(3′,4′-dihydro)quinazolin]-2′(1′H)-one]"
2,14,"O=C1Nc2c(Cl)ccc(Cl)c2C2(CCCCC2)N1 [Example 15, 5′,8′-Dichlorospiro[cyclohexane-1-4′-3′,4′-dihydro)quinazolin]-2′(1′H)-one]"
3,13,"O=C1Nc2c(Cl)cc(-c3ccc(C(=O)N4CCN(CC(=O)N5CCOCC5)CC4)cc3)cc2C2(CCCCC2)N1 [Example 53, 8′-Chloro-6′-[4-(4-(2-morpholin-4-yl-2-oxo-ethyl)-piperazine-1-carbonyl)-phenyl]spiro[-cyclohexane-1-4′-(3′,4′-dihydro)quinazolin]-2′(1′H)-one]"
